Experimental data taken from patent US20110039824A1, “1,2,3,6-tetrahydroazepino[4,5-b]indole-5-carboxylate nuclear receptor inhibitors” (Wyeth, priority 2008, published 2011).

Legend:
[1] = molecular target: T1, Gal4/hFXR fusion protein (Homo sapiens, UniProt Q96RI1); test: Gal4/hFXR fusion protein agonist activity in human 293 cells (luciferase); format: cell-based; parameters: rows headed: hFXR agonist EC50; hFXR agonist eff. @ 30 μM; other: efficacy @ 30 μM; conditions: efficacy @ 30 μM
T1 sequence (Q96RI1 262-486 limits assumed): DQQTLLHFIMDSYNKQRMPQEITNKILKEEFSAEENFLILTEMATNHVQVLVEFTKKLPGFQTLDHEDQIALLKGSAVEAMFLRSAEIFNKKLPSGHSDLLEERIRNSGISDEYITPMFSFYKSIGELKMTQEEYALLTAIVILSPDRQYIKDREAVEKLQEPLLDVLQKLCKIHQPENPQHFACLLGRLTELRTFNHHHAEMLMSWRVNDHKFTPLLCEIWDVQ
Experimental: • Assay Medium: Phenol red free high glucose Dulbecco's modified Eagle's medium with sodium pyruvate (Cellgro, #17-205-CV) supplemented with 10% fetal bovine serum (Gibco, 16000-044), 1% glutamax (Gibco, 35050-061), 100 units/mL penicillin and 100 μg/mL streptomycin (Gibco, 15140-122). • Culturplate-96 (PerkinElmer, 6005688) • Lysis buffer (Promega, E3971) • Luciferase assay reagent (Promega E1483)
• 1. Compounds to be tested were prepared as 2× stocks in assay medium. • 2. […] The supernatant was removed and the cells were resuspended in 1 ml assay medium. The cells were counted and diluted in assay medium to 200,000 cells per ml. The cells were then plated at 10,000 cells per well in Culturplate-96 plates in 50 uL assay medium. The cells were incubated at 37° C. for approximately 1 hour. • 3. […] All assays included 1 uM GW4064 (Maloney et al., J. Med. Chem., 2000, 43(16), 2971-2974) as a reference standard. • 4. Cells were incubated for 24 hours at 37° C.
• 5. […] The plates were analyzed for luciferase activity with luciferase assay reagent (Promega E1483). Plates were read on Victor^3V instrument using the protocol “Shuguang Luciferase assay” (dispense volume=100 uL, plate type=“Packard Viewplate”, measurement height=8 mm from bottom of plate, 5 second read per well).
• 1. For agonist single point screening, data were analyzed in Excel. […]

[2] = Solubility in 2% Tween/0.5% MC aq.; format: physicochemical
[3] = molecular target: CYP450 2C9 (Homo sapiens, UniProt P11712); test: CYP450 2C9 inhibition; format: in vitro ADME
[4] = molecular target: CYP450 3A4 (Homo sapiens, UniProt P08684); test: CYP450 3A4 inhibition; format: in vitro ADME
[5] = molecular target: T2, Progesterone Receptor (PR) (Homo sapiens, UniProt P06401); test: Progesterone receptor (PR) antagonism, alkaline phosphatase assay in T47D cells; format: cell-based; conditions: percent inhibition @ 10 μM vs 1 nM progesterone
T2 sequence (P06401 679-933 limits assumed): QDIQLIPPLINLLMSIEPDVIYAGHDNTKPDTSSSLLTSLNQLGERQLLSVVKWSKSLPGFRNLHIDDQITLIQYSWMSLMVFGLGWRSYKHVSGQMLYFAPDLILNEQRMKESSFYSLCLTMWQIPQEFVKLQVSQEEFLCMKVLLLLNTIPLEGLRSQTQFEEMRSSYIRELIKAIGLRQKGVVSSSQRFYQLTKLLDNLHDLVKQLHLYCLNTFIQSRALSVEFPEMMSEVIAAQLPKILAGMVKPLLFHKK
Experimental: DMEM:F12 (1:1) (GIBCO, BRL) supplemented with 5% (v/v) charcoal stripped fetal bovine serum (not heat-inactivated), 100 U/ml penicillin, 100 jig/ml streptomycin, and 2 mM GlutaMax (GIBCO, BRL).
I. 0.1M Tris-HCl, pH 9.8, containing 0.2% Triton X-100 II. 0.1 M Tris-HCl, pH 9.8, containing 4 mM p-nitrophenyl phosphate (Sigma).
Frozen T47D cells were thawed in a 37° C. water bath and diluted to 280,000 cells/ml in culture medium. To each well in a 96-well plate (Falcon, Becton Dickinson Labware), 180 μl of diluted cell suspension was added. Twenty μl of reference or test compounds diluted in the culture medium were then added to each well. When testing for progestin antagonist activity, reference antiprogestins or test compounds were added in the presence of 1 nM progesterone. The cells were incubated at 37° C. in a 5% CO2/humidified atmosphere for 24 hours.
At the end of treatment, the medium was removed from the plate. Fifty μl of assay buffer I was added to each well. The plates were shaken in a titer plate shaker for […]. Then 150 μl of assay buffer II was added to each well. Optical density measurements were taken at 5 min intervals for 30 min at a test wavelength of 405 nm.

[6] = PAMPA permeability; format: in vitro ADME
[7] = HLM stability; format: in vitro ADME; conditions: human, liver microsomes; read-out: HLM (t1/2)
[8] = molecular target: CYP450 2D6 (Homo sapiens, UniProt P10635); test: CYP450 2D6 inhibition; format: in vitro ADME
[9] = test system: LDLR KO Mouse Model; test: Mouse serum triglyceride (TG) and cholesterol levels in LDLR -/- mice; format: in vivo; conditions: daily oral gavage 7 days
Experimental: Eight-week old LDLR −/−mice were purchased from Jackson Laboratories and maintained on a chow diet. Some LDLR −/−mice were fed a western diet (AlN-76A; Purina Test Diets) as indicated. All mice were treated by daily oral gavage with vehicle or varying concentrations of compound for 7 days. On the last day after the final dose, the food was removed to allow a 3 hr fast and serum was harvested for analysis. Serum TG and cholesterol levels were determined using a Roche 912 clinical chemistry analyzer and expressed as mg/dL.

[10] = test system: Caco2; test: Caco2 permeability; format: in vitro ADME
[11] = molecular target: hERG (Homo sapiens, UniProt Q12809); test: hERG function; conditions: values printed as concentrations; read-out: hERG function (% Inh. @ 10 μM)
[12] = Pharmacokinetics (bioavailability, half life); format: in vivo

Sequence of CYP450 2C9 (P11712 whole entry): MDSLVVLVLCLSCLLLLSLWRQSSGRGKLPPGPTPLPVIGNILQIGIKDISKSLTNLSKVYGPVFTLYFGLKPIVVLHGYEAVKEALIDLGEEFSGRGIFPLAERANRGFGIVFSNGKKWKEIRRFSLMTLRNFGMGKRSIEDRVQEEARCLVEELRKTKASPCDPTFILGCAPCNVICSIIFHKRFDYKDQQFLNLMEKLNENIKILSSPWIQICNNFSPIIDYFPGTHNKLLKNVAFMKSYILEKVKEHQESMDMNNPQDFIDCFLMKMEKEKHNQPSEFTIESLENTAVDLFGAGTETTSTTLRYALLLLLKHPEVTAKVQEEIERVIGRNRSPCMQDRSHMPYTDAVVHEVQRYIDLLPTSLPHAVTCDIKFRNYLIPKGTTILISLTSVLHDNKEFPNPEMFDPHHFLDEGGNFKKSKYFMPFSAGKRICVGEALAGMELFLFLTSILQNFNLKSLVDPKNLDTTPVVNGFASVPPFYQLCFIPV
Sequence of hERG (Q12809 whole entry): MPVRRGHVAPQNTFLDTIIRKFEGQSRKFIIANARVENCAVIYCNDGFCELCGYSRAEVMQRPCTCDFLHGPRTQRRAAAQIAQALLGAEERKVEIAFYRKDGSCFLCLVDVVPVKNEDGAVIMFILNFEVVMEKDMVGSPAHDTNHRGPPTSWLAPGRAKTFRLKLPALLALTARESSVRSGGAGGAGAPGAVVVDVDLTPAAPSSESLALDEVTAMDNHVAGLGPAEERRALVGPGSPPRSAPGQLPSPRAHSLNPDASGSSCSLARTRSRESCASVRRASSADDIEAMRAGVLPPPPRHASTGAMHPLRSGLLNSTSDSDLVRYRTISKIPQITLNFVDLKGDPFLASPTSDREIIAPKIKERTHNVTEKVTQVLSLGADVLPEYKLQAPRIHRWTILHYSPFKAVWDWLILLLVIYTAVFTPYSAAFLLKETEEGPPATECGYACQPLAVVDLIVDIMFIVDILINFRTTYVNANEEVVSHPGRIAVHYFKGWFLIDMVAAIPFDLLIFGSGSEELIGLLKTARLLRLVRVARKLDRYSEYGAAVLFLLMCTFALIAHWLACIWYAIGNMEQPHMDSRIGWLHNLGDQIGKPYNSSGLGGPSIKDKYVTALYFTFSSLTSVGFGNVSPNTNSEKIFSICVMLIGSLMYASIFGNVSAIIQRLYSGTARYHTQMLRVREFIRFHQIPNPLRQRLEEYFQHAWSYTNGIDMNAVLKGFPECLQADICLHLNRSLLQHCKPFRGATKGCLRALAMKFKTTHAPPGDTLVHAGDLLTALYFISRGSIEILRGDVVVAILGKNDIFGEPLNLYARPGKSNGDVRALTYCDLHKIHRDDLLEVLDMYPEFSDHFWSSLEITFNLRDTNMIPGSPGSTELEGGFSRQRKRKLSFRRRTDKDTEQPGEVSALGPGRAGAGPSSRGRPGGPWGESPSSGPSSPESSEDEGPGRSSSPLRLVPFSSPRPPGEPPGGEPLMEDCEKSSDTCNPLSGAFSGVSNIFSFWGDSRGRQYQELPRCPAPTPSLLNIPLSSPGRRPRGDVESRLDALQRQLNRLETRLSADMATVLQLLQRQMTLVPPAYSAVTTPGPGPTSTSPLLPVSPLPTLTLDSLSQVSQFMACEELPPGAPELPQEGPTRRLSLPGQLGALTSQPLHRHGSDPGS
Sequence of CYP450 2D6 (P10635 whole entry): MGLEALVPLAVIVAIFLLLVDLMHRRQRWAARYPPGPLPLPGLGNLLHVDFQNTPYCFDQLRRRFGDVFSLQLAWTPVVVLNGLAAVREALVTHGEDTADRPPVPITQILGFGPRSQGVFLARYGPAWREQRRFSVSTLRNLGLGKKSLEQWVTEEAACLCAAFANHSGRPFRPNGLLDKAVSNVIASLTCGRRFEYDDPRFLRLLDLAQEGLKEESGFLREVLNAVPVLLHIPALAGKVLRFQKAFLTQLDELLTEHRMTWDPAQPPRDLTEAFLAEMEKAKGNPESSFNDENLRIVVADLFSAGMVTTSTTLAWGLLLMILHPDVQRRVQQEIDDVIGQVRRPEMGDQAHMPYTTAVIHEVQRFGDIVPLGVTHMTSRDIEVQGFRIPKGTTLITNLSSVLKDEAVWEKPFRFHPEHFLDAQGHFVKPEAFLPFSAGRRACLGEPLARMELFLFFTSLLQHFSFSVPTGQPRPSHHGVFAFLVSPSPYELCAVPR
Sequence of CYP450 3A4 (P08684 whole entry): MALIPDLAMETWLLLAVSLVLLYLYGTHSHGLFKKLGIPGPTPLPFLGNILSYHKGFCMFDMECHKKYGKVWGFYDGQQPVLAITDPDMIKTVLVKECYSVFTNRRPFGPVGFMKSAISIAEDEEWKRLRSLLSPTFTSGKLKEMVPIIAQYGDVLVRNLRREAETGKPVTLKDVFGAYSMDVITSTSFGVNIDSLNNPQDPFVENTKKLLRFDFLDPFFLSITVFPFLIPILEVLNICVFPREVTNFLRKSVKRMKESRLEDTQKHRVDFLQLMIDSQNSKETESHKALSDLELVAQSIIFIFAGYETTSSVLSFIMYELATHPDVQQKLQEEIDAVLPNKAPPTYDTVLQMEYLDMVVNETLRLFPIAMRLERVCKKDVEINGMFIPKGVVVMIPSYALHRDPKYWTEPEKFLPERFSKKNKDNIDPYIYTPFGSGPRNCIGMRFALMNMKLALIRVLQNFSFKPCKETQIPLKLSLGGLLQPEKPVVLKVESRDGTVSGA

- hFXR agonist eff. @ 30 μM [1]: 179%
- 2% Tween/0.5% MC aq. sol. (mg/mL) [2]: 0.01 mg/mL
- 2% Tween/0.5% MC aq. sol. (μM) [2]: 22.0 µM
- CYP450 2C9 % I @ 3 μM [3]: 24%
- CYP450 3A4 % I @ 3 μM [4]: 43%
- PR Antagonism (Alk. Phos. Assay @ 10 μM) [5]: 44% @ 10 μM
- PAMPA Permeability (Pe × 10^−6) [6]: 0 × 10^−6
- half-life [7]: 18 min
- CYP450 2D6 % I @ 3 μM [8]: 5%
- Transport mechanism [10]: passive
- Caco2 Permeability (Pe × 10^−6) A-B ([10]; A-B): 0.5 × 10^−6
- Caco2 Permeability (Pe × 10^−6) B-A ([10]; B-A): 0.5 × 10^−6
- Caco2 Permeability, class ([10]; class in words): Low
- Bioavailability (dosed in aqueous MC/Tween) [12]: poor
SMILES: CC(C)OC(=O)C1=CN(C(=O)c2ccc(F)c(F)c2)CC(C)(C)c2c1[nH]c1ccccc21 [Reference Compound 2, isopropyl-3-(3,4-difluorobenzoyl)-1,1-dimethyl-1,2,3,6-tetrahydroazepino[4,5-b]indole-5-carboxylate]
- Reduction of Total Cholesterol in a LDLR KO Mouse Model (Female) @ 10 mpk ([9]; female): 36%
- Reduction of Triglycerides in a LDLR KO Mouse Model (Female) @ 10 mpk ([9]; female): 39%
- Reduction of Total Cholesterol in a LDLR KO Mouse Model (Male) @ 10 mpk ([9]; male): 47%
- Reduction of Triglycerides in a LDLR KO Mouse Model (Male) @ 10 mpk ([9]; male): 71%
- IC50 [11]: > 10 µM
